The source of these data is US20240092784A1, “CONDENSED HETEROCYCLIC COMPOUND” (NISSAN CHEMICAL CORPORATION, priority 2020, published 2024).

Each structure is given as a SMILES string. Counter-ions that a name gives are not always drawn.

Sequence of human SPR (P35270 whole entry): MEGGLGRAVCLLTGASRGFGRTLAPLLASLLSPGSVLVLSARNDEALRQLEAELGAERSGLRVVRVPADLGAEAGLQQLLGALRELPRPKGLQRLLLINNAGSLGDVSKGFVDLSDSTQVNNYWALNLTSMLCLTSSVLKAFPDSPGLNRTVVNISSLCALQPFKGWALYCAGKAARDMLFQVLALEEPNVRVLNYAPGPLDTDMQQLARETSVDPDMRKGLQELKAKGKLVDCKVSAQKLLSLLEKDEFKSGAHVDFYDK

One experiment deals with human SPR (Homo sapiens (Human), UniProt P35270). Briefly: Evaluation Example 2: Measurement of human SPR inhibitory activity (seven concentrations, sepiapterin absorbance at 420 nm). In kind it is biochemical. The conditions noted are these: Evaluation Example 2, seven concentrations 0.14 nM to 100 nM, 240 minutes at room temperature, read-out: IC50. The method in brief:
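Reactions ran 240 min at room temperature in 100 mM Tris-HCl pH 7.5 with 0.01% BSA. They contained tag-cleaved, E. coli-expressed full-length human SPR (diluted to 150 ng/mL), seven compound concentrations from 0.14 to 100 nM, and sepiapterin/NADPH added as a 120 μM/160 μM solution. Inhibition was calculated from sepiapterin absorbance at 420 nm.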
For `CC(C)Cn1c(=O)c(C(=O)NC2CC2)c(O)n2ncc(/C=C/C(=O)N3CCC[C@H]3CO)c12` [compound 510, (S,E)-N-Cyclopropyl-7-hydroxy-3-(3-(2-(hydroxymethyl)pyrrolidin-1-yl)-3-oxoprop-1-en-1-yl)-4-isobutyl-5-oxo-4,5-dihydropyrazolo[1,5-a]pyrimidine-6-carboxamide], the IC50 is 0.85 nM.
In the case of `CC(C)(C)Cn1c(=O)c(C(=O)NC2CC2)c(O)n2nc(C(C)(C)O)cc12` [Synthesis Example 278, N-Cyclopropyl-7-hydroxy-2-(2-hydroxypropan-2-yl)-4-neopentyl-5-oxo-4,5-dihydropyrazolo[1,5-a]pyrimidine-6-carboxamide], the IC50 was found to be 1.87 nM.
Turning to `Cc1nn2c(O)c(C(=O)NC3CC3)c(=O)n(CC(C)C)c2c1/C=C/C(=O)N1CC2C(C1)C2(F)F` (centres unmarked) [compound 608, (E)-N-Cyclopropyl-3-(3-(6,6-difluoro-3-azabicyclo[3.1.0]hexan-3-yl)-3-oxoprop-1-en-1-yl)-7-hydroxy-4-isobutyl-2-methyl-5-oxo-4,5-dihydropyrazolo[1,5-a]pyrimidine-6-carboxamide], the IC50 turned out to be 1.07 nM.
As to `C/C(=C\c1cnn2c(O)c(C(=O)NC3CC3)c(=O)n(CC(C)C)c12)C(=O)N1CCC(F)(F)C1` [Synthesis Example 256, (E)-N-Cyclopropyl-3-(3-(3,3-difluoropyrrolidin-1-yl)-2-methyl-3-oxoprop-1-en-1-yl)-7-hydroxy-4-isobutyl-5-oxo-4,5-dihydropyrazolo[1,5-a]pyrimidine-6-carboxamide], the IC50 came out at 0.97 nM.
With `Cc1nn2c(O)c(C(=O)NC3CC3)c(=O)n(CC(C)C)c2c1/C=C/C(=O)N1CCC(F)(F)CC1C` (centres unmarked) [Synthesis Example 672, (E)-N-Cyclopropyl-3-(3-(4,4-difluoro-2-methylpiperidin-1-yl)-3-oxoprop-1-en-1-yl)-7-hydroxy-4-isobutyl-2-methyl-5-oxo-4,5-dihydropyrazolo[1,5-a]pyrimidine-6-carboxamide], the IC50 stood at 0.86 nM.
In the case of `CC(C)Cn1c(=O)c(C(=O)NC2CC2)c(O)n2ncc(/C=C/C(=O)N3CCS(=O)(=O)CC3)c12` [compound 514, (E)-N-Cyclopropyl-3-(3-(1,1-dioxidothiomorpholino)-3-oxoprop-1-en-1-yl)-7-hydroxy-4-isobutyl-5-oxo-4,5-dihydropyrazolo[1,5-a]pyrimidine-6-carboxamide], the IC50 was 0.58 nM.
As for `CC(C)Cn1c(=O)c(C(=O)NC2CC2)c(O)n2ncc(/C=C/C(=O)N3CCOC[C@H]3c3ccccc3)c12` [compound 602, (R,E)-N-Cyclopropyl-7-hydroxy-4-isobutyl-5-oxo-3-(3-oxo-3-(3-phenylmorpholino)prop-1-en-1-yl)-4,5-dihydropyrazolo[1,5-a]pyrimidine-6-carboxamide], the IC50 was determined as 1.14 nM.
In the case of `CC(C)(C)Cn1c(=O)c(C(=O)NCC(F)(F)F)c(O)n2nc(Br)cc12` [Synthesis Example 272, 2-Bromo-7-hydroxy-4-neopentyl-5-oxo-N-(2,2,2-trifluoroethyl)-4,5-dihydropyrazolo[1,5-a]pyrimidine-6-carboxamide], the IC50 turned out to be 3.78 nM.
With `Cc1nccnc1Nc1cc2n(CC(C)(C)C)c(=O)c(C(=O)NC3CC3)c(O)n2n1` [Synthesis Example 328, N-Cyclopropyl-7-hydroxy-2-((3-methylpyrazin-2-yl)amino)-4-neopentyl-5-oxo-4,5-dihydropyrazolo[1,5-a]pyrimidine-6-carboxamide], the IC50 was determined as 1.56 nM.
As for `Cc1nn2c(O)c(C(=O)NC3CC3)c(=O)n(CC(C)C)c2c1/C=C/C(=O)N1[C@@H](C)CC[C@@H]1C` [Synthesis Example 617, N-Cyclopropyl-3-((E)-3-((2S,5S)-2,5-dimethylpyrrolidin-1-yl)-3-oxoprop-1-en-1-yl)-7-hydroxy-4-isobutyl-2-methyl-5-oxo-4,5-dihydropyrazolo[1,5-a]pyrimidine-6-carboxamide], the IC50 came to 1.04 nM.
In the case of `CC(C)(C)Cn1c(=O)c(C(=O)NC2CC2)c(O)n2nc(-c3[nH]ncc3C(=O)NCC3CCOCC3)cc12` [Synthesis Example 315, N-Cyclopropyl-7-hydroxy-4-neopentyl-5-oxo-2-(4-(((tetrahydro-2H-pyran-4-yl)methyl)carbamoyl)-1H-pyrazol-5-yl)-4,5-dihydropyrazolo[1,5-a]pyrimidine-6-carboxamide hydrochloride], the IC50 was found to be 1.11 nM.
On the same count and under the same terms, the same measure for `CC(C)Cn1c(=O)c(C(=O)NC2CC2)c(O)n2ncc(/C=C/C(=O)N3CCC(S(C)(=O)=O)CC3)c12` [compound 488]: 0.87 nM; for `CC(C)(C)Cn1c(=O)c(C(=O)NC2CC2)c(O)n2nc(Nc3cnc(C(=O)N4CCC(C#N)CC4)cn3)cc12` [Synthesis Example 359, 2-((5-(4-Cyanopiperidine-1-carbonyl)pyrazin-2-yl)amino)-N-cyclopropyl-7-hydroxy-4-neopentyl-5-oxo-4,5-dihydropyrazolo[1,5-a]pyrimidine-6-carboxamide]: 0.88 nM; for `CC1(Cn2c(=O)c(C(=O)NC3CC3)c(O)n3ncc(/C=C/C(=O)N4CCOCC4)c23)CCOCC1` [Synthesis Example 386, (E)-N-Cyclopropyl-7-hydroxy-4-((4-methyltetrahydro-2H-pyran-4-yl)methyl)-3-(3-morpholino-3-oxoprop-1-en-1-yl)-5-oxo-4,5-dihydropyrazolo[1,5-a]pyrimidine-6-carboxamide]: 0.6 nM.
`Cc1nn2c(O)c(C(=O)NC3CC3)c(=O)n(CC(C)C)c2c1/C=C/C(=O)N(C)Cc1ccccn1` [Synthesis Example 638, (E)-N-Cyclopropyl-7-hydroxy-4-isobutyl-2-methyl-3-(3-(methyl(pyridin-2-ylmethyl)amino)-3-oxoprop-1-en-1-yl)-5-oxo-4,5-dihydropyrazolo[1,5-a]pyrimidine-6-carboxamide]: the IC50 was 1.05 nM.
As to `CC(C)(C)Cn1c(=O)c(C(=O)NC2CC2)c(O)n2nc(-c3cnccn3)cc12` [Synthesis Example 302, N-Cyclopropyl-7-hydroxy-4-neopentyl-5-oxo-2-(pyrazin-2-yl)-4,5-dihydropyrazolo[1,5-a]pyrimidine-6-carboxamide], the IC50 turned out to be 2.69 nM.
Turning to `COC[C@@H]1CCCN1C(=O)/C=C/c1cnn2c(O)c(C(=O)NC3CC3)c(=O)n(CC(C)C)c12` [compound 549, (S,E)-N-Cyclopropyl-7-hydroxy-4-isobutyl-3-(3-(2-(methoxymethyl)pyrrolidine-1-yl)-3-oxoprop-1-en-1-yl)-5-oxo-4,5-dihydropyrazolo[1,5-a]pyrimidine-6-carboxamide], the IC50 was 0.73 nM.
`CC(C)Cn1c(=O)c(C(=O)NC2CC2)c(O)n2ncc(/C=C/C(=O)N3CCO[C@@H](C(F)(F)F)C3)c12` [compound 529, (R,E)-N-Cyclopropyl-7-hydroxy-4-isobutyl-5-oxo-3-(3-oxo-3-(2-(trifluoromethyl)morpholino)prop-1-en-1-yl)-4,5-dihydropyrazolo[1,5-a]pyrimidine-6-carboxamide]: the IC50 was determined as 1.03 nM.
On the same count and under the same terms, next, `CC(C)Cn1c(=O)c(C(=O)NC2CC2)c(O)n2ncc(/C=C/C(=O)N3CCC(C(C)(F)F)CC3)c12` [compound 469]: 0.89 nM; `Cc1cncc(Nc2cc3n(CC(C)(C)C)c(=O)c(C(=O)NC4CC4)c(O)n3n2)n1` [Synthesis Example 330, N-Cyclopropyl-7-hydroxy-2-((6-methylpyrazin-2-yl)amino)-4-neopentyl-5-oxo-4,5-dihydropyrazolo[1,5-a]pyrimidine-6-carboxamide]: 1.83 nM; `CC(C)(C)Cn1c(=O)c(C(=O)NC2CC2)c(O)n2nc(Nc3cncc(C(F)(F)F)n3)cc12` [Synthesis Example 331, N-Cyclopropyl-7-hydroxy-4-neopentyl-5-oxo-2-((6-(trifluoromethyl)pyrazin-2-yl)amino)-4,5-dihydropyrazolo[1,5-a]pyrimidine-6-carboxamide]: 1.71 nM.
As to `COC(C)Cn1c(=O)c(C(=O)NC2CC2)c(O)n2ncc(/C=C/C(=O)N3CCOCC3)c12` (single isomer, unassigned) [Synthesis Example 384, (E)-N-Cyclopropyl-7-hydroxy-4-(2-methoxypropyl)-3-(3-morpholino-3-oxoprop-1-en-1-yl)-5-oxo-4,5-dihydropyrazolo[1,5-a]pyrimidine-6-carboxamide], the IC50 amounted to 0.82 nM.
For `Cc1ccc(CNC(=O)c2cnn3c(O)c(C(=O)NC4CC4)c(=O)n(CC(C)C)c23)nc1` [Synthesis Example 228, N6-Cyclopropyl-7-hydroxy-4-isobutyl-N3-((5-methylpyridin-2-yl)methyl)-5-oxo-4,5-dihydropyrazolo[1,5-a]pyrimidine-3,6-dicarboxamide], the IC50 came to 1.02 nM.
For the molecule `Cc1nn2c(O)c(C(=O)NC3CC3)c(=O)n(CC(C)C)c2c1/C=C/C(=O)N1C[C@@H](C)OC[C@H]1C` [Synthesis Example 644, N-Cyclopropyl-3-((E)-3-((2R,5R)-2,5-dimethylmorpholino)-3-oxoprop-1-en-1-yl)-7-hydroxy-4-isobutyl-2-methyl-5-oxo-4,5-dihydropyrazolo[1,5-a]pyrimidine-6-carboxamide], the IC50 is 0.91 nM.

The same experiment, now with this note: sepiapterin absorbance, Table 41, read-out: concentration at 50% inhibition of human SPR (IC50).
Take `COC[C@@H]1COCCN1C(=O)/C=C/c1c(C)nn2c(O)c(C(=O)NC3CC3)c(=O)n(CC(C)(C)C)c12` [Synthesis Example 693, (R,E)-N-Cyclopropyl-7-hydroxy-3-(3-(3-(methoxymethyl)morpholino)-3-oxoprop-1-en-1-yl)-2-methyl-4-neopentyl-5-oxo-4,5-dihydropyrazolo[1,5-a]pyrimidine-6-carboxamide]: the IC50 was 0.71 nM.
`CC(C)Cn1c(=O)c(C(=O)NC2CC2)c(O)n2ncc(/C=C/C(=O)N3CCc4ccncc43)c12` [Synthesis Example 742, (E)-N-Cyclopropyl-3-(3-(2,3-dihydro-1H-pyrrolo[2,3-c]pyridin-1-yl)-3-oxoprop-1-en-1-yl)-7-hydroxy-4-isobutyl-5-oxo-4,5-dihydropyrazolo[1,5-a]pyrimidine-6-carboxamide]: the IC50 amounted to 1.59 nM.
